Reference: patent publication US9598441B2, “Therapeutic compounds and methods” (Wayne State University, priority 2011, dated 2017)

Key:
[1] = target: T1, Gst-APC-2 (685-754) (Homo sapiens, UniProt Q9UJX6); assay: In vitro binding of SMIs, immobilized Gst-APC-2 pre-incubated with CFM; conditions: WB with anti HA-tag
T1 construct: immobilizing the Gst-APC-2 (685-754) peptide with Gst-beads; made in house; host or cells: E. coli BL-21 (DE3)
Procedure: The CFM-4 and 5 were separately dissolved in DMSO to obtain a stock of 20-50 mM. For in vitro binding experiments we utilized affinity-purified Gst-APC-2 (685-754) and His-TAT-HA-tagged A-epitope (WT) peptide. Ten nanogram of the His-TAT-HA-tagged A-epitope (WT) peptide was first allowed to bind with Ni-NTA beads (ProBond, InVitrogen), and then the reaction was incubated with DMSO (control), 100 μM CFM-4, or 100 μM CFM-5 for 30 min at RT. The reactions were then subjected to three washes with the binding buffer, followed by incubation with 10 ng of affinity-purified Gst-APC-2 (685-754) peptide for 30 min at RT. The reactions were washed again for three times with PBS, eluted and analyzed on a SDS-PAGE followed by western blotting (WB) with anti-Gst antibodies. A similar strategy was performed by immobilizing the Gst-APC-2 (685-754) peptide with Gst-beads. The beads were washed, incubated with DMSO or the CFMs, and the reactions washed again. The reactions were then allowed to incubate with affinity purified A-epitope peptide, and the complexes analyzed by SDS-PAGE followed by WB with anti HA-tag antibodies.

[2] = tested on: drug (ADR or TAM)-resistant MCF-7 HBC cells; assay: MTT cell viability assay, drug-resistant cells; assay type: cell-based, human
From the text: Routine maintenance and culture of MDA-MB-231, MDA-MB-468, SKBR-3 (all lack ER and have mutant p53), MCF-7, T47D (both have ER and wild-type p53) HBC cells (Runnebaum, I. B., Nagarajan, M., Bowman, M., Soto, D., and Sukumar, S. (1991). Proc. Natl. Acad. Sci. USA 88, 10657-10661), human prostate cancer PC3 and LnCAP cells, HCT-116 human colon cancer, human pancreatic cancer PANC-1 and BxPC-3, Burkett lymphoma Raji, diffuse large B-cell lymphoma WSU-DLCL2, follicular lymphoma WSU-FSCCL cells, cervical cancer HeLa, human mesothelial Met5a, human pleural malignant mesothelioma (MPM), murine MPM AB12 cells (Wang, Y., Rishi, A. K., Puliyappadamba, V. T., Sharma, S., Yang, H., Tarca, A., Dou, Q. P., Lonardo, F., Ruckdeschel, J. C., Pass, H. I., Wali, A. (2010) Can. Chemother. […]
Logarithmically growing cells were either untreated or treated with different agents for various time periods. […] The cell growth inhibition was assessed by using MTT assay. […]

T1 sequence (Q9UJX6 685-754): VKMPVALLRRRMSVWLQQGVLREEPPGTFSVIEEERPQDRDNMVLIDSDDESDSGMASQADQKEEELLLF

## O=C1N(Cc2ccccc2Cl)c2ccccc2C12NN=C(c1ccccc1)S2 (centres unmarked) [CFM-4, 1-(2-chlorobenzyl)-5′-phenyl-3′H-spiro[indoline-3,2′-[1,3,4]thiadiazol]-2-one]
[1]
  binding of immobilized Gst-APC-2 (685-754) with A-epitope peptide after pre-incubation with compound: failed to abolish its binding
[2]
  proliferation of drug-resistant MCF-7 cells (MTT): inhibited proliferation
